From patent US9421209B2, “Kinase modulators” (Rhizen Pharmaceuticals SA, priority 2009, dated 2016)
Where two headings read alike, the source gives them in different places.

Tests used:
[1] = biological target: P110 δ/Pi3K δ (Homo sapiens, UniProt O00329); assay: Fluorescent (HTRF) determination of PI3K enzyme activity, δ isoform; format: biochemical; parameters: inhibition: dose or concentration left out as unconfirmed
Description: Assay 1: Fluorescent determination of PI3Kinase Kinase enzyme activity
Phosphoinositide 3 kinases (PI3K) belong to a class of lipid kinases that play a critical role in the regulation of several key cellular processes. The PI3K are capable of phosphorylating the 3-hydroxy position of phosphoinositols thereby generating second messengers involved in downstream signalling events. The homogenous time resolved fluorescence (HTRF) assay allows detection of 3,4,5-triphosphate (PIP3) formed as a result of phosphorylation of phosphotidylinositol 4,5-biphosphate (PIP2) by PI3K isoforms such as α, β, γ or δ.
PI3K isoform activity for α, β, γ or δ was determined using a PI3K human HTRF™ Assay Kit (Millipore, Billerica, Mass.) with modifications. All incubations were carried out at room temperature. […] After the initial incubation, 5 μl/well of 400 μM ATP was added and incubated for an additional 30 minutes. Reaction was terminated by adding 5 μl/well stop solution (Millipore, Billerica, Mass.). Five microliters of detection mix (Millipore, Billerica, Mass.) were then added to each well and was incubated for 6-18 h in the dark. […] Data were analyzed using Graphpad Prism (Graphpad software; San Diego Calif.) for IC50 determination. Percent inhibition was calculated based on the values for the blank and enzyme controls.

[2] = read-out: P110 δ/ Pi3K δ IC 50 nM

Chain of P110 δ/Pi3K δ (O00329 whole entry, canonical isoform): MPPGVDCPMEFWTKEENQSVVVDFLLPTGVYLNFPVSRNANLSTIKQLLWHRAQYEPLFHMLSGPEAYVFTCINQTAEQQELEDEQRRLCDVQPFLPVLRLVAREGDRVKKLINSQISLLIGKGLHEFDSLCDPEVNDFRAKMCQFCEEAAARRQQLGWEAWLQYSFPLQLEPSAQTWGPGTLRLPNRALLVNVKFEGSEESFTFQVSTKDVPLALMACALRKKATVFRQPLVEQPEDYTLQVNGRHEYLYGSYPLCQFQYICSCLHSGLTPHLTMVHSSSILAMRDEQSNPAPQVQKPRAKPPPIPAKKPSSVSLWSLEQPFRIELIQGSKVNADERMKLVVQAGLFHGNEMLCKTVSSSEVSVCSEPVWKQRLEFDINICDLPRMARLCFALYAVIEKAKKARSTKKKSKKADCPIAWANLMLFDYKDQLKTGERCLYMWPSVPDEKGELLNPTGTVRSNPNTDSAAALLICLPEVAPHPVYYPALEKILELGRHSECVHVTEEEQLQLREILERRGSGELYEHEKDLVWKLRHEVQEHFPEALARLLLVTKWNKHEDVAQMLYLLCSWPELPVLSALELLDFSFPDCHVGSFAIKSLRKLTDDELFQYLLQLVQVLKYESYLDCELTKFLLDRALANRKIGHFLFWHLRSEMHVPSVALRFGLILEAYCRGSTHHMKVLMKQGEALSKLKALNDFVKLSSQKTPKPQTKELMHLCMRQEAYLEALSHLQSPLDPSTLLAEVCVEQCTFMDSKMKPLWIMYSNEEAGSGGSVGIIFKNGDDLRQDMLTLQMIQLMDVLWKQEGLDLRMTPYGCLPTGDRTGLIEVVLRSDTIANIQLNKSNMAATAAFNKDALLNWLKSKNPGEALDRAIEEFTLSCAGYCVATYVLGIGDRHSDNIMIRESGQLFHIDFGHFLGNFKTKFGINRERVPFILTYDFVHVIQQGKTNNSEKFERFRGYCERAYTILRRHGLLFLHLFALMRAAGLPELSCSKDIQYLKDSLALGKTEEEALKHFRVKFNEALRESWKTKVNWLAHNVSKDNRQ
Chain of P110 δ/Pi3K δ (P27986 whole entry partner, canonical isoform): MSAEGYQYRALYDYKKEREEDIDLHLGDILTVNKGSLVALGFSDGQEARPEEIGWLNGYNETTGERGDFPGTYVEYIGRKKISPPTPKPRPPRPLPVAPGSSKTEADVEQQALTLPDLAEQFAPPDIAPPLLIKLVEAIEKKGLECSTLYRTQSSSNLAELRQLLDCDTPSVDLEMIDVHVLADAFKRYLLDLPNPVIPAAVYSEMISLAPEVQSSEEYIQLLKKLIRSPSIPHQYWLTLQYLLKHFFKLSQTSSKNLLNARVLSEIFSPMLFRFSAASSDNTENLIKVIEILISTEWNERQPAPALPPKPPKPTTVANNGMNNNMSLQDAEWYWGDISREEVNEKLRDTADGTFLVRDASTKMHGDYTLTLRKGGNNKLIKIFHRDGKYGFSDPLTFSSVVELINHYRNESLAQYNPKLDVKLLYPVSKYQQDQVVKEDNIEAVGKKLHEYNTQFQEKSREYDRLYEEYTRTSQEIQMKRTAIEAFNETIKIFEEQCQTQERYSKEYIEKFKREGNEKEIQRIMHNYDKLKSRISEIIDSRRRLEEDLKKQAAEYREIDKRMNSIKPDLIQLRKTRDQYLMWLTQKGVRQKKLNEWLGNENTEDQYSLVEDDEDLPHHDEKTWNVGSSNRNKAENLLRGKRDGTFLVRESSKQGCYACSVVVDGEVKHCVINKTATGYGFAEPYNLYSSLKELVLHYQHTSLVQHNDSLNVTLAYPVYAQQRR

Compound | inhibition [1] [%] | melting point [°C] | IC50 [1, 2] [nM] | inhibition at 1 µM [1] [%] | IC50 ([1]; read-out: P110 δ/Pi3K δ IC 50 nM) [nM]
CC(c1oc2ccccc2c(=O)c1-c1cccc(F)c1)n1nc(-c2ccc(O)c(O)c2)c2c(N)ncnc21 (centres unmarked) [Example 98, 2-(1-(4-amino-3-(3,4-dihydroxyphenyl)-1H-pyrazolo[3,4-d]pyrimidin-1-yl)ethyl)-3-(3-fluorophenyl)-4H-chromen-4-one] | 50 to 100 | 193 to 195 | < 250 | – | –
Cc1n[nH]c2cc(-c3nn(Cc4oc5ccccc5c(=O)c4-c4cccc(F)c4)c4ncnc(N)c34)ccc12 [Example 99, 2-((4-amino-3-(3-methyl-1H-indazol-6-yl)-1H-pyrazolo[3,4-d]pyrimidin-1-yl)methyl)-3-(3-fluorophenyl)-4H-chromen-4-one] | 50 to 100 | 246 to 248 | – | – | –
Cc1ccccc1-c1c(C(C)n2cnc3c(N)ncnc32)oc2ccccc2c1=O (centres unmarked) [Example 44, 2-(1-(6-Amino-9H-purin-9-yl)ethyl)-3-o-tolyl-4H-chromen-4-one] | – | 202 to 205 | – | 50 to 100 | –
CC(Sc1ncnc2[nH]cnc12)c1oc2ccc(Br)cc2c(=O)c1-c1ccccc1 (centres unmarked) [Example 22, 2-(1-(9H-Purin-6-ylthio)ethyl)-6-bromo-3-phenyl-4H-chromen-4-one] | – | 234 to 237 | – | < 50 | –
O=c1c(-c2ccccc2)c(CSc2ncnc3[nH]cnc23)oc2ccccc12 [Example 11, 2-((9H-Purin-6-ylthio)methyl)-3-phenyl-4H-chromen-4-one] | – | 208 to 209 | – | < 50 | –
CC(c1oc2ccccc2c(=O)c1-c1ccccc1)n1ncc2c(N)ncnc21 (centres unmarked) [Example 30, 2-(1-(4-Amino-1H-pyrazolo[3,4-d]pyrimidin-1-yl)ethyl)-3-phenyl-4H-chromen-4-one] | – | 226 to 227 | – | < 50 | –
CC(c1oc2ccccc2c(=O)c1-c1ccccc1)n1nc(C#CC(C)(C)O)c2c(N)ncnc21 (centres unmarked) [Example 71, 2-(1-(4-amino-3-(3-hydroxy-3-methylbut-1-ynyl)-1H-pyrazolo[3,4-d]pyrimidin-1-yl)ethyl)-3-phenyl-4H-chromen-4-one] | – | 109 to 113 | – | < 50 | –
Nc1ncnc2c1c(-c1cn[nH]c1)nn2Cc1oc2ccccc2c(=O)c1-c1ccccc1 [Example 60, 2-((4-amino-3-(1H-pyrazol-4-yl)-1H-pyrazolo[3,4-d]pyrimidin-1-yl)methyl)-3-phenyl-4H-chromen-4-one] | – | 235 to 237 | – | 50 to 100 | < 250
Nc1ncnc2c1c(CCCO)nn2Cc1oc2ccccc2c(=O)c1-c1ccccc1 [Example 64, 2-((4-amino-3-(3-hydroxypropyl)-1H-pyrazolo[3,4-d]pyrimidin-1-yl)methyl)-3-phenyl-4H-chromen-4-one] | – | 182 to 184 | – | < 50 | –
O=c1c(-c2ccccc2F)c(CNc2ncnc3[nH]cnc23)oc2ccccc12 [Example 45, 2-((9H-purin-6-ylamino)methyl)-3-(2-fluorophenyl)-4H-chromen-4-one] | – | 143 to 147 | – | < 50 | –
COc1cccc(-c2nn(Cc3oc4ccccc4c(=O)c3-c3ccccc3)c3ncnc(N)c23)c1 [Example 52, 2-((4-Amino-3-(3-methoxyphenyl)-1H-pyrazolo[3,4-d]pyrimidin-1-yl)methyl)-3-phenyl-4H-chromen-4-one] | – | 111 to 115 | – | < 50 | –
Nc1ncnc2c1c(-c1ccc3cn[nH]c3c1)nn2Cc1oc2ccccc2c(=O)c1-c1ccccc1 [Example 75, 2-((4-amino-3-(1H-indazol-6-yl)-1H-pyrazolo[3,4-d]pyrimidin-1-yl)methyl)-3-phenyl-4H-chromen-4-one] | – | 140 to 143 | – | 50 to 100 | –
C[C@H](Nc1ncnc2[nH]cnc12)c1oc2ccc(Br)cc2c(=O)c1-c1ccccc1 [Example 24, (S)-2-(1-(9H-purin-6-ylamino)ethyl)-6-bromo-3-phenyl-4H-chromen-4-one] | – | 151 to 154 | – | < 50 | –
Nc1ncnc2c1cnn2Cc1oc2ccc(Br)cc2c(=O)c1-c1ccccc1 [Example 14, 2-((4-Amino-1H-pyrazolo[3,4-d]pyrimidin-1-yl)methyl)-6-bromo-3-phenyl-4H-chromen-4-one] | – | 236 to 240 | – | < 50 | –
Cc1cccc2c1ncn2Cc1oc2ccc(Br)cc2c(=O)c1-c1ccccc1 [Example 6, 6-Bromo-2-[(4-methyl-1H-benzo[d]imidazol-1-yl)methyl]-3-phenyl-4H-chromen-4-one] | – | 176 to 179 | – | < 50 | –
CC(c1oc2ccccc2c(=O)c1-c1cccc(F)c1)n1nc(-c2cccc3[nH]ncc23)c2c(N)ncnc21 (centres unmarked) [Example 77, 2-(1-(4-amino-3-(1H-indazol-4-yl)-1H-pyrazolo[3,4-d]pyrimidin-1-yl)ethyl)-3-(3-fluorophenyl)-4H-chromen-4-one] | – | 231 to 233 | – | 50 to 100 | –
O=c1c(-c2cccc(F)c2)c(CNc2ncnc3[nH]cnc23)oc2ccccc12 [Example 46, 2-((9H-purin-6-ylamino)methyl)-3-(3-fluorophenyl)-4H-chromen-4-one] | – | 211 to 214 | – | < 50 | –
Nc1cccc(-c2nn(Cc3oc4ccccc4c(=O)c3-c3ccccc3)c3ncnc(N)c23)c1 [Example 91, 2-((4-amino-3-(3-aminophenyl)-1H-pyrazolo[3,4-d]pyrimidin-1-yl)methyl)-3-phenyl-4H-chromen-4-one] | < 50 | 157 to 159 | – | – | –

Now from value to molecule:

inhibition [1] [%] | melting point [°C] | IC50 [1, 2] [nM] | inhibition at 1 µM [1] [%] | IC50 ([1]; read-out: P110 δ/Pi3K δ IC 50 nM) [nM] | Compound
< 50 | 166 to 168 | – | – | – | CC(c1oc2ccccc2c(=O)c1-c1cccc(F)c1)n1ccc2ncnc(Cl)c21 (centres unmarked) [Example 169, 2-(1-(4-Chloro-5H-pyrrolo[3,2-d]pyrimidin-5-yl)ethyl)-3-(3-fluorophenyl)-4H-chromen-4-one]
< 50 | 275 to 278 | – | – | – | CC(c1oc2ccccc2c(=O)c1-c1cccc(F)c1)n1nc(-c2ccc(CN)s2)c2c(N)ncnc21 (centres unmarked) [Example 102a, 2-(1-(4-amino-3-(5-(aminomethyl)thiophen-2-yl)-1H-pyrazolo[3,4-d]pyrimidin-1-yl)ethyl)-3-(3-fluorophenyl)-4H-chromen-4-one]
50 to 100 | 215 to 217 | – | – | – | CC(c1oc2ccccc2c(=O)c1-c1cccc(F)c1)n1nc(-c2ccc(C=O)o2)c2c(N)ncnc21 (centres unmarked) [Example 179, 5-(4-amino-1-(1-(3-(3-fluorophenyl)-4-oxo-4H-chromen-2-yl)ethyl)-1H-pyrazolo[3,4-d]pyrimidin-3-yl)furan-2-carbaldehyde]
< 50 | 173 to 176 | – | – | – | CC(c1oc2ccccc2c(=O)c1-c1cccc(F)c1)n1ncc2c(Cl)ccnc21 (centres unmarked) [Example 167, 2-(1-(4-Chloro-1H-pyrazolo[3,4-b]pyridin-1-yl)ethyl)-3-(3-fluorophenyl)-4H-chromen-4-one]
50 to 100 | 281 to 285 | – | – | – | CC(c1oc2ccccc2c(=O)c1-c1cccc(F)c1)n1nc(-c2ccc3cc(O)ccc3c2)c2c(N)ncnc21 (centres unmarked) [Example 162, 2-(1-(4-amino-3-(6-hydroxynaphthalen-2-yl)-1H-pyrazolo[3,4-d]pyrimidin-1-yl)ethyl)-3-(3-fluorophenyl)-4H-chromen-4-one]
< 50 | 285 to 287 | – | – | – | COc1ccc2cc(-c3nn(C(C)c4oc5ccccc5c(=O)c4-c4cccc(F)c4)c4ncnc(N)c34)ccc2c1 (centres unmarked) [Example 172, 2-(1-(4-amino-3-(6-methoxynaphthalen-2-yl)-1H-pyrazolo[3,4-d]pyrimidin-1-yl)ethyl)-3-(3-fluorophenyl)-4H-chromen-4-one]
50 to 100 | 226 to 229 | – | – | – | CC(c1oc2ccccc2c(=O)c1-c1cccc(F)c1)n1nc(-c2csc3ccccc23)c2c(N)ncnc21 (centres unmarked) [Example 173, 2-(1-(4-amino-3-(benzo[b]thiophen-3-yl)-1H-pyrazolo[3,4-d]pyrimidin-1-yl)ethyl)-3-(3-fluorophenyl)-4H-chromen-4-one]
< 50 | 91 to 94 | – | – | – | CC(c1oc2ccccc2c(=O)c1-c1cccc(F)c1)n1nc(-c2ccc(N)cc2)c2c(N)ncnc21 (centres unmarked) [Example 107a, 2-(1-(4-amino-3-(4-aminophenyl)-1H-pyrazolo[3,4-d]pyrimidin-1-yl)ethyl)-3-(3-fluorophenyl)-4H-chromen-4-one]
50 to 100 | 249 to 252 | < 250 | – | – | Cc1n[nH]c2cc(-c3nn(C(C)c4oc5ccccc5c(=O)c4-c4ccccc4)c4ncnc(N)c34)ccc12 (centres unmarked) [Example 104, 2-(1-(4-amino-3-(3-methyl-1H-indazol-6-yl)-1H-pyrazolo[3,4-d]pyrimidin-1-yl)ethyl)-3-phenyl-4H-chromen-4-one]
< 50 | 127 to 132 | – | – | – | CC(c1oc2ccccc2c(=O)c1-c1cccc(F)c1)n1nc(-c2cccc(C(=O)NC3CC3)c2)c2c(N)ncnc21 (centres unmarked) [Example 176, 3-(4-amino-1-(1-(3-(3-fluorophenyl)-4-oxo-4H-chromen-2-yl)ethyl)-1H-pyrazolo[3,4-d]pyrimidin-3-yl)-N-cyclopropylbenzamide]
